{"source": "paper PMC5899049", "about": "(ACS infectious diseases, 2017)", "key": {"[1]": {"system": "P. falciparum, Dd2 strain (MRA-150)", "settings": "read-out: P. falciparum growth inhibition IC50; Dd2 (MRA-150) strain; data reported previously; cited from earlier work"}, "[2]": {"system": "E. coli, strain BL21(DE3)", "assay": "E. coli growth inhibition assay", "type": "cell-based, Escherichia coli", "settings": "for % E. coli growth inhibition (18 h): NI = no inhibition"}, "[3]": {"molecular_target": "Recombinant P. falciparum IspD (Plasmodium falciparum, UniProt Q8I273)", "assay": "Pf IspD enzymatic assay", "type": "biochemical", "settings": "for PfIspD % inhibition at 1 μM (1000 nM): 1 μM (1000 nM) compound, 60 nM Pf IspD, NI = no inhibition; for IC50: read-out: PfIspD IC50, measured at 60 nM Pf IspD"}, "[4]": {"system": "Escherichia coli IspD (EcIspD)", "settings": "concentrations up to 10 μM; cited from earlier work"}, "[5]": {"system": "E. coli, strain BL21(DE3)", "settings": "500 μM; NI = no inhibition; data reported previously; cited from earlier work"}, "[6]": {"system": "Arabidopsis thaliania IspD", "settings": "concentrations up to 10 μM; cited from earlier work"}, "[7]": {"molecular_target": "P. falciparum IspD", "settings": "read-out: P. falciparum IspD Ki; cited from earlier work"}, "[8]": {"system": "Mycobacterium tuberculosis IspD", "settings": "concentrations up to 10 μM; cited from earlier work"}, "[9]": {"system": "P. falciparum, Dd2 strain (MRA-150)", "assay": "P. falciparum growth inhibition", "settings": "Plasmodium falciparum, DD2, 72 h, read-out: IC50 value at 72 h"}, "[10]": {"molecular_target": "T1, Human IspD (hIspD) (Homo sapiens, UniProt A4D126)", "T1 sequence (A4D126 1-451)": "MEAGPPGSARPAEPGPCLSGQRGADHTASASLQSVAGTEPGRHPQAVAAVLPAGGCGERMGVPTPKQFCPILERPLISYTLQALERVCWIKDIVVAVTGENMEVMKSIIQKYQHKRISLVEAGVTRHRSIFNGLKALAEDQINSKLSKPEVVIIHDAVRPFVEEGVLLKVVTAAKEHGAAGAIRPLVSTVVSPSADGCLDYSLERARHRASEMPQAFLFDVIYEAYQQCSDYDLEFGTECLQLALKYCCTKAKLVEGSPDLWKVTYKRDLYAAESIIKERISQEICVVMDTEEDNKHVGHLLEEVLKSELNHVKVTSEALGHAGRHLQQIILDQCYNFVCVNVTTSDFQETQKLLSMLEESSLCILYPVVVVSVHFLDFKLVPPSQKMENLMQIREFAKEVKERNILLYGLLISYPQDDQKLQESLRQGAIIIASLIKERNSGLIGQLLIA", "assay": "Human IspD enzymatic assay", "type": "biochemical", "settings": "2 μM hIspD, 37 °C, 16 h"}, "[11]": {"system": "MEP pathway intermediates (CDP-ME, MEcPP, IPP) in P. falciparum schizont stage parasites", "assay": "MEP pathway metabolite profiling by LC-MS/MS", "type": "cell-based, Plasmodium falciparum", "settings": "1 μM 1a or 7a, 10 μM FOS; for Decrease in cellular levels of Pf IspD product CDP-ME: schizont stage; for Reduction of the IPP levels: 4 h treatment"}, "[12]": {"system": "P. falciparum (Dd2 strain)", "assay": "Cytocidal", "type": "cell-based, Plasmodium falciparum", "settings": "LC50 could not be determined"}, "[13]": {"system": "MEP pathway metabolites in parasites starting at ring stage", "settings": "5 μM FOS for 10 h starting at ring stage; ref 24 (Zhang et al.); cited from earlier work"}}, "note": "Read-outs that look alike come from different tables or passages of the source.", "data": [{"smiles": "O=C(O)[C@H]1Cc2c([nH]c3ccccc23)[C@H](c2ccc(Cl)cc2Cl)N1", "note": "(single isomer, unassigned; ent-1a) [ent-1a]", "values": [{"measurement": "IC50", "setting": "[1]", "result": "> 10000", "unit": "nM"}, {"measurement": "% E. coli growth inhibition (18 h)", "setting": "[2]; 250 μM", "result": "no effect"}]}, {"smiles": "O=C(O)[C@H]1Cc2c([nH]c3ccccc23)[C@@H](c2ccc(Cl)cc2Cl)N1", "note": "(single isomer, unassigned; ent-5a) [ent-5a]", "values": [{"measurement": "IC50", "setting": "[1]", "result": "3000 ± 200", "unit": "nM"}, {"measurement": "PfIspD % inhibition at 1 μM (1000 nM)", "setting": "[3]", "result": "27 ± 5", "unit": "% inh. @ 1 μM"}, {"measurement": "% E. coli growth inhibition (18 h)", "setting": "[2]; 250 μM", "result": "18 ± 6 @ 250 μM %"}]}, {"smiles": "O=C(O)[C@@H]1Cc2c([nH]c3ccccc23)[C@@H](c2ccc(Cl)cc2Cl)N1", "note": "[1a, (1R,3S)-MMV008138]", "values": [{"measurement": "IC50", "setting": "[1]", "result": "250 ± 70", "unit": "nM"}, {"measurement": "Inhibition of Escherichia coli IspD", "setting": "[4]", "result": "did not inhibit"}, {"measurement": "% E. coli growth inhibition (18 h)", "setting": "[5]", "result": "no effect"}, {"measurement": "Inhibition of Arabidopsis thaliania IspD", "setting": "[6]", "result": "did not inhibit"}, {"measurement": "Ki", "setting": "[7]", "result": "7 to 13", "unit": "nM"}, {"measurement": "Inhibition of Mycobacterium tuberculosis IspD", "setting": "[8]", "result": "did not inhibit"}, {"measurement": "IC50", "setting": "[9]", "result": "350 ± 30", "unit": "nM"}, {"measurement": "Human IspD CDP-ribitol formation", "setting": "[10]; 20 μM 1a", "result": "not inhibited"}, {"measurement": "Human IspD CDP-ribitol formation", "setting": "[10]; 200 μM 1a", "result": "not inhibited"}, {"measurement": "Decrease in cellular levels of Pf IspD product CDP-ME", "setting": "[11]; 2 h exposure", "result": "67 ± 2", "unit": "%"}, {"measurement": "Decrease in cellular levels of Pf IspD product CDP-ME", "setting": "[11]; 4 h exposure", "result": "84 ± 8", "unit": "%"}, {"measurement": "Reduction of the IPP levels", "setting": "[11]", "result": "> 90", "unit": "%"}, {"measurement": "Parasite growth at 72 h after wash-out", "setting": "[12]; 6 h incubation", "result": "grow similarly to untreated controls"}, {"measurement": "Parasite growth at 72 h after wash-out", "setting": "[12]; 12 h incubation", "result": "grow similarly to untreated controls"}]}, {"smiles": "COc1ccc(C2NC(C(=O)O)Cc3c2[nH]c2ccccc32)cc1OC", "note": "(stereo not shown) [1x]", "values": [{"measurement": "IC50", "setting": "[1]", "result": "> 20000", "unit": "nM"}]}, {"smiles": "O=C(O)[C@@H]1Cc2c([nH]c3ccccc23)[C@H](c2ccc(Cl)cc2Cl)N1", "note": "[5a]", "values": [{"measurement": "IC50", "setting": "[1]", "result": "> 10000", "unit": "nM"}, {"measurement": "% E. coli growth inhibition (18 h)", "setting": "[2]; 125 μM", "result": "no effect"}]}, {"smiles": "CNC(=O)C1Cc2c([nH]c3ccccc23)C(c2ccc(Br)cc2Cl)N1", "note": "(stereo not shown) [7j]", "values": [{"measurement": "IC50", "setting": "[3]", "result": "21 ± 6", "unit": "nM"}]}, {"smiles": "CNC(=O)C1Cc2c([nH]c3ccccc23)C(c2ccc(Cl)cc2Br)N1", "note": "(stereo not shown) [7k]", "values": [{"measurement": "IC50", "setting": "[3]", "result": "31 ± 4", "unit": "nM"}]}, {"smiles": "CCNC(=O)C1Cc2c([nH]c3ccccc23)C(c2ccc(Cl)cc2Cl)N1", "note": "(stereo not shown) [8a]", "values": [{"measurement": "IC50", "setting": "[3]", "result": "~1000", "unit": "nM"}]}, {"smiles": "Clc1ccc(C2NCCc3c2[nH]c2ccccc32)c(Cl)c1", "note": "(stereo not shown) [11a]", "values": [{"measurement": "PfIspD % inhibition at 1 μM (1000 nM)", "setting": "[3]", "result": 7, "unit": "% inh. @ 1000"}, {"measurement": "% E. coli growth inhibition (18 h)", "setting": "[2]; 250 μM", "result": "45 ± 10 @ 250 μM %"}]}, {"smiles": "O=CN(O)CCCP(=O)(O)O", "note": "[FOS, fosmidomycin, reference compound]", "values": [{"measurement": "IC50", "setting": "[1]", "result": "880 ± 70", "unit": "nM"}, {"measurement": "inhibition at 10 µM", "setting": "[3]; read-out: PfIspD % inhibition at 10 μM, 10 μM compound, 60 nM Pf IspD", "result": "~4", "unit": "%"}, {"measurement": "MIC", "setting": "[2]; Escherichia coli, 18 h, read-out: E. coli minimum inhibitory concentration (MIC)", "result": "11.99 ± 0.02", "unit": "µM"}, {"measurement": "Decrease in cellular levels of Pf IspD product CDP-ME", "setting": "[11]; 2 h exposure", "result": "did not cause significant reduction"}, {"measurement": "Decrease in cellular levels of Pf IspD product CDP-ME", "setting": "[11]; 4 h exposure", "result": "did not cause significant reduction"}, {"measurement": "Reduction of the IPP levels", "setting": "[11]", "result": "> 90", "unit": "%"}, {"measurement": "Levels of CDP-ME", "setting": "[13]", "result": "reduced levels"}]}]}
